Data published in patent publication US20250304576A1 (Cancer Research Technology Limited, priority 2022, published 2025).

Columns and labels:
Recombinant IKKα = target: T1, Recombinant IKKα (Homo sapiens, UniProt O15111); experiment: DELFIA IKKα kinase assay (apparent Ki, Cheng-Prusoff); assay type: biochemical
T1 construct: purchased Millipore, Dundee, UK
T1 sequence (O15111 1-745): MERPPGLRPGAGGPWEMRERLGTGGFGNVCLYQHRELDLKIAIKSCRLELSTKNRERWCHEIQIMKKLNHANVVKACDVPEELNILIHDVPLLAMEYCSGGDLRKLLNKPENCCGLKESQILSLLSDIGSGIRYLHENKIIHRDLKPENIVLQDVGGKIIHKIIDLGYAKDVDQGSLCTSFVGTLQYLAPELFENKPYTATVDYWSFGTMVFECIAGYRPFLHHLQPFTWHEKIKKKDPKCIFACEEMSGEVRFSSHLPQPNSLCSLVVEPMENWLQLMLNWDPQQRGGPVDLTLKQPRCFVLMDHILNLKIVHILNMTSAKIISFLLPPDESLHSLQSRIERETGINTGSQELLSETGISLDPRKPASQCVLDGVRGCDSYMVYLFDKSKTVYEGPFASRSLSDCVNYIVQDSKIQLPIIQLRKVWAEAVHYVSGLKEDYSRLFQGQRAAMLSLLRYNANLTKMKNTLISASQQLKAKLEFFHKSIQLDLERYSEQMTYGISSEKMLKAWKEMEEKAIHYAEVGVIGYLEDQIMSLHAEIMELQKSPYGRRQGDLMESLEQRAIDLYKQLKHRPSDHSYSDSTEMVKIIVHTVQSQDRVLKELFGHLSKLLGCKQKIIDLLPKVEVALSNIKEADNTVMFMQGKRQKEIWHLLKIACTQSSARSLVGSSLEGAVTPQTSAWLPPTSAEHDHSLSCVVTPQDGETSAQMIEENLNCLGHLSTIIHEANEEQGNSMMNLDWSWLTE
Method in brief: (§1)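 DELFIA time-resolved fluorescence (ex 340/em 615 nm) quantified phosphorylation of a biotinylated IκB-α Ser32 peptide (0.375 μM) by 37 nM recombinant IKKα or IKKβ. Reactions used 40 μM ATP, Tris pH 7.5 buffer with MgCl2, DTT and BSA, 60 min at 30° C. Cheng-Prusoff equation gave apparent Ki.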

Recombinant IKKβ = target: T2, Recombinant IKKβ (Homo sapiens, UniProt O14920); experiment: DELFIA IKKβ kinase assay (apparent Ki, Cheng-Prusoff); assay type: biochemical
T2 construct: purchased Millipore, Dundee, UK
T2 sequence (O14920 1-756): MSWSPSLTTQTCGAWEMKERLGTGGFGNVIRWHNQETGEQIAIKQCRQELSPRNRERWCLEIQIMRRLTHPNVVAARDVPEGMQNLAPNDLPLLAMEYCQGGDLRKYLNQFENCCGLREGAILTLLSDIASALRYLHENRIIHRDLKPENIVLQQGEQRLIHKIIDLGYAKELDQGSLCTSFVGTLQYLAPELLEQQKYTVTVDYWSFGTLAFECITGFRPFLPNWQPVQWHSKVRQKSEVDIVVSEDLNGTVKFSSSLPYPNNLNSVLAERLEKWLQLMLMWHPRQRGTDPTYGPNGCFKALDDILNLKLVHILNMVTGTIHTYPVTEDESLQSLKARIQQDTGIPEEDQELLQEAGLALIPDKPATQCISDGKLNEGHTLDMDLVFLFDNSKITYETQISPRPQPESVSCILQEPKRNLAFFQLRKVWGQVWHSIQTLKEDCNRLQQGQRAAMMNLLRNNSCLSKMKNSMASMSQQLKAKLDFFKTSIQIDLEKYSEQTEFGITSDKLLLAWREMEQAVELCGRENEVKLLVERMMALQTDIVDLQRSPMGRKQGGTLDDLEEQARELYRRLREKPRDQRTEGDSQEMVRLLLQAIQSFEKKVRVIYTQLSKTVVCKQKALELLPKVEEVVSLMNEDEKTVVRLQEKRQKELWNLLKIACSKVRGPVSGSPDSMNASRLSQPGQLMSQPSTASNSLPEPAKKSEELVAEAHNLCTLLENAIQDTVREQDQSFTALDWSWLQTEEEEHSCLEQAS
Method in brief: as §1

[1] = DELFIA assay (first line of an example)
[2] = non-italicised figure: DELFIA assay

Ki (Recombinant IKKα; [1]) [nM]	Ki (Recombinant IKKβ; [1]) [nM]	Ki (Recombinant IKKα; [2]) [nM]	Ki (Recombinant IKKβ; [2]) [nM]	Compound
169	1180			Nc1n[nH]c2c(C#CC3CCCCC3)cc(-c3ccnc4[nH]ccc34)cc12 [Example 204, 7-(Cyclohexylethynyl)-5-(1H-pyrrolo[2,3-b]pyridin-4-yl)-1H-indazol-3-amine]
		8	294	CC(C)(O)C#Cc1c(-c2ccc3[nH]nc(N)c3c2)ccnc1N [Example 87, 4-(2-Amino-4-(3-amino-1H-indazol-5-yl)pyridine-3-yl)-2-methylbut-3-yn-2-ol]
		1	103	Nc1nccc(-c2ccc3[nH]nc(N)c3c2)c1C#CCCO [Example 84, 4-(2-Amino-4-(3-amino-1H-indazol-5-yl)pyridine-3-yl)but-3-yn-1-ol]
		91	3270	Nc1nccc(-c2ccc3[nH]nc(N)c3c2)c1C#CCCCN1CCCCC1 [Example 95, 5-(2-Amino-3-(5-(piperidin-1-yl)pent-1-yn-1-yl)pyridin-4-yl)-1H-indazol-3-amine]
110	2140			CC(C)N(C)Cc1cc2c(-c3ccc4[nH]nc(N)c4c3)ccnc2[nH]1 [Example 259, 5-(2-((Isopropyl(methyl)amino)methyl)-1H-pyrrolo[2,3-b]pyridine-4-yl)-1H-indazol-3-amine]
380	> 10000			Nc1n[nH]c2ccc(-c3ccnc4[nH]c(C5CCCCN5)cc34)cc12 (stereo not drawn) [Example 250, 5-(2-(Piperidin-2-yl)-1H-pyrrolo[2,3-b]pyridine-4-yl)-1H-indazol-3-amine]
42	461			Nc1n[nH]c2ccc(-c3ccnc4[nH]c(C5CCCCC5)cc34)cc12 [Example 219, 5-(2-Cyclohexyl-1H-pyrrolo[2,3-b]pyridin-4-yl)-1H-indazol-3-amine]
5	503			Nc1n[nH]c2ccc(-c3ccnc4[nH]c(CO)cc34)cc12 [Example 224]
30	2370			Nc1n[nH]c2c(C#CCCCN3CCCCC3)cc(-c3ccnc4[nH]ccc34)cc12 [Example 212, 7-(5-(Piperidin-1-yl)pent-1-yn-1-yl)-5-(1H-pyrrolo[2,3-b]pyridin-4-yl)-1H-indazol-3-amine]
13	181			Nc1n[nH]c2c(C#CC3CC3)cc(-c3ccnc4[nH]ccc34)cc12 [Example 202, 7-(Cyclopropylethynyl)-5-(1H-pyrrolo[2,3-b]pyridin-4-yl)-1H-indazol-3-amine]
5	50			Nc1n[nH]c2ccc(-c3ccnc4[nH]c(CC5CCNCC5)cc34)cc12 [Example 272, 5-(2-(Piperidin-4-ylmethyl)-1H-pyrrolo[2,3-b]pyridin-4-yl)-1H-indazol-3-amine]
		12	289	Nc1nccc(-c2ccc3[nH]nc(N)c3c2)c1C#CC1CCCC1 [Example 73, 5-(2-Amino-3-(cyclopentylethynyl)pyridine-4-yl)-1H-indazol-3-amine]
